Values after ≈ are worked out from the molar mass of the structure shown.
Columns and labels:
[1] = biological target: T1, Long-chain-fatty-acid--AMP ligase FadD32 (Mycobacterium tuberculosis (strain ATCC 25618 / H37Rv)) (UniProt O53580); experiment: Inhibition of Mycobacterium tuberculosis H37Rv FadD32 assessed as reduction in bacterial viability after 6 days by resazurin dye based fluorescence assay
T1 sequence (whole entry): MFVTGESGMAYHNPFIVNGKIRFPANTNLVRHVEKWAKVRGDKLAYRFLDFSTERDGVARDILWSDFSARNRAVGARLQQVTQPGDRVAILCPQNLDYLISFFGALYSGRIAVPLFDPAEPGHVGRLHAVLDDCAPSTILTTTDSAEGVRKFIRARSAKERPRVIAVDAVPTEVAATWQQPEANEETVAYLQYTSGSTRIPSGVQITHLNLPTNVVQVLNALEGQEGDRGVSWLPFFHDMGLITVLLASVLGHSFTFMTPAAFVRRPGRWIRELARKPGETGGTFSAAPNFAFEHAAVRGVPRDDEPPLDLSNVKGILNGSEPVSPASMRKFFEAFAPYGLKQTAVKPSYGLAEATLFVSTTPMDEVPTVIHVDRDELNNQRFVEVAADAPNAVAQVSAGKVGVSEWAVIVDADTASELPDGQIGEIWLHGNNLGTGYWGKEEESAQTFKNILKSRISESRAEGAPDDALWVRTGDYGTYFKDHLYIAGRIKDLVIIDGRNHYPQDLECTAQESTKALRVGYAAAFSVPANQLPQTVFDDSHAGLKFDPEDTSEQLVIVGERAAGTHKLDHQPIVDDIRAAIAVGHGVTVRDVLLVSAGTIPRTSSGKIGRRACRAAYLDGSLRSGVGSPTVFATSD

[2] = Kinetic solubility of the compound at pH 7.4 by chemiluminescence nitrogen detection method; type: physicochemical; conditions: buffer, read-out: Kinetic_solubility
[3] = Metabolic stability in mouse liver microsomes at 1 uM after 60 mins by UPLC-MS/MS analysis; type: ADME, microsome; conditions: for remaining at 1 h, 1 µM: liver microsomes, read-out: Stability
[4] = Metabolic stability in human liver microsomes at 1 uM after 60 mins by UPLC-MS/MS analysis; type: ADME, microsome; conditions: for remaining at 1 h, 1 µM: liver microsomes, read-out: Stability
HepG2 = experiment: Cytotoxicity against human HepG2 cells after 48 hrs by CellTiter-Glo assay; type: cell-based; conditions: HepG2, 48 h
[5] = tested on: Mycobacterium tuberculosis; experiment: Antimycobacterial activity against Mycobacterium tuberculosis; type: functional
[6] = Protein binding in mouse plasma a 5 uM after 5 hrs by UPLC-MS based rapid equilibrium dialysis method; type: ADME, cell-free
[7] = Protein binding in human plasma a 5 uM after 5 hrs by UPLC-MS based rapid equilibrium dialysis method; type: ADME, cell-free
[8] = Plasma clearance in mouse at 1 mg/kg, iv; type: ADME, organism-based
[9] = tested on: Mycobacterium tuberculosis; experiment: Antimycobacterial activity against Mycobacterium tuberculosis H37Rv infected in C57BL/6J mouse assessed as log reduction in bacterial load in lungs up to 50 mg/kg, po qd via gavage up to day 8 post infection starting from day 1 post infection measured on day 9; type: functional
[10] = tested on: Mycobacterium tuberculosis; experiment: Antimycobacterial activity against Mycobacterium tuberculosis H37Rv infected in C57BL/6J mouse assessed as reduction in bacterial load in lungs administered po qd via gavage up to day 8 post infection starting from day 1 post infection measured on day 9; type: functional, organism-based
[11] = tested on: Mycobacterium tuberculosis; experiment: Antimycobacterial activity against Mycobacterium tuberculosis H37Rv infected in C57BL/6J mouse assessed as 2 log reduction in bacterial load in lungs administered po qd via gavage up to day 8 post infection starting from day 1 post infection measured on day 9; type: functional
Mus musculus = experiment: Toxicity in C57BL/6J mouse infected with Mycobacterium tuberculosis H37Rv assessed as mortality up to 50 mg/kg, po qd via gavage up to day 8 post infection starting from day 1 post infection measured daily; type: organism-based; conditions: in vivo
[12] = Drug level treated with 4-(4-fluorophenyl)-5,7-dimethyl-6-(4-(morpholinomethyl)phenyl)-2H-chromen-2-one under basic condition after 18 hrs at room temperature in presence of morpholine; type: physicochemical

| SMILES | MIC90 [1] | solubility kinetic [2] | further results |
| --- | --- | --- | --- |
| Cc1cc2occ(-c3ccccc3)c2c(C)c1-c1ccc(CN2CCOCC2)cc1 | 2.5 µM (≈ 0.994 µg/mL) |  |  |
| Cc1cc2nccc(-c3ccccc3Cl)c2c(C)c1-c1ccncc1 | 5 µM (≈ 1.72 µg/mL) | 21 µM (≈ 7.24 µg/mL) |  |
| Cc1cc2nc(CO)cc(-c3ccccc3Cl)c2c(C)c1-c1ccncc1 | 3.75 µM (≈ 1.41 µg/mL) | 32 µM (≈ 12 µg/mL) |  |
| COc1cccc(-c2ccnc3cc(C)c(-c4ccc(CN5CCOCC5)cc4)c(C)c23)c1Cl | 10 µM (≈ 4.73 µg/mL) | 2 µM (≈ 0.946 µg/mL) |  |
| Cc1cc2nccc(-c3cccnc3)c2c(C)c1-c1ccc(CN2CCOCC2)cc1 | 5 µM (≈ 2.05 µg/mL) | 209 µM (≈ 85.6 µg/mL) |  |
| Cc1cc2nc(C(=O)N3CCNCC3)cc(-c3ccccc3Cl)c2c(C)c1-c1ccncc1 | 10 µM (≈ 4.57 µg/mL) |  |  |
| Cc1cc2nc(C(=O)N3CCCC3)cc(-c3ccccc3Cl)c2c(C)c1-c1ccncc1 | 5 µM (≈ 2.21 µg/mL) | 41 µM (≈ 18.1 µg/mL) |  |
| Cc1cc2nc(C(=O)NCCN(C)C)cc(-c3ccccc3Cl)c2c(C)c1-c1ccncc1 | 0.3 µM (≈ 0.138 µg/mL) | 263 µM (≈ 121 µg/mL) | remaining at 1 h, 1 µM [3]: 24%; remaining at 1 h, 1 µM [4]: 3.2%; IC50 (HepG2): 16 µM |
| Cc1cc2nc(C(=O)N3CCOCC3)cc(-c3ccccc3Cl)c2c(C)c1-c1ccncc1 | 15 µM (≈ 6.87 µg/mL) | 145 µM (≈ 66.4 µg/mL) |  |
| Cc1cc2nc(C(C)(C)O)cc(-c3ccccc3Cl)c2c(C)c1-c1ccncc1 | > 40 µM | 38 µM (≈ 15.3 µg/mL) |  |
| Cc1cc2nccc(-c3ccnn3C)c2c(C)c1-c1ccc(CN2CCOCC2)cc1 | 2.5 µM (≈ 1.03 µg/mL) | 243 µM (≈ 100 µg/mL) |  |
| CCOC(=O)c1cc(-c2ccccc2Cl)c2c(C)c(-c3ccncc3)c(C)cc2n1 | 10 µM (≈ 4.17 µg/mL) | 9 µM (≈ 3.75 µg/mL) |  |
| COc1ncccc1-c1ccnc2cc(C)c(-c3ccc(CN4CCOCC4)cc3)c(C)c12 | 2.5 µM (≈ 1.1 µg/mL) | 1 µM (≈ 0.44 µg/mL) |  |
| Cc1cc2oc(=O)cc(-c3ccccc3)c2c(C)c1-c1ccc(CN2CCOCC2)cc1 |  |  | MIC90 [5]: 0.24 to 5.6 µM (≈ 0.102 to 2.38 µg/mL) |
| Cc1cc2nc(C(=O)NCCO)cc(-c3ccccc3Cl)c2c(C)c1-c1ccncc1 | 0.3 µM (≈ 0.13 µg/mL) | 25 µM (≈ 10.8 µg/mL) | remaining at 1 h, 1 µM [3]: 26.2%; remaining at 1 h, 1 µM [4]: 8%; IC50 (HepG2): 100 µM |
| Cc1cc2oc(=O)cc(-c3cccc(N)c3)c2c(C)c1-c1ccc(CN2CCOCC2)cc1 |  |  | MIC90 [5]: 0.24 to 5.6 µM (≈ 0.106 to 2.47 µg/mL) |
| Cc1cc2nc(C(=O)NC(C)C)cc(-c3ccccc3Cl)c2c(C)c1-c1ccncc1 | 2.5 µM (≈ 1.07 µg/mL) | 4 µM (≈ 1.72 µg/mL) |  |
| COc1ccncc1-c1ccnc2cc(C)c(-c3ccc(CN4CCOCC4)cc3)c(C)c12 | 2.5 µM (≈ 1.1 µg/mL) | 169 µM (≈ 74.3 µg/mL) |  |

| SMILES | MIC90 [1] | solubility kinetic [2] | further results |
| --- | --- | --- | --- |
| Cc1cc2nccc(-c3cncnc3)c2c(C)c1-c1ccc(CN2CCOCC2)cc1 | 2.5 µM (≈ 1.03 µg/mL) | > 230 µM | PPB [6]: 92.8%; PPB [7]: 95.2%; Stability ([3]; microsomes, 1 h, 1 µM): < 5%; Stability ([4]; microsomes, 1 h, 1 µM): 11.6%; clearance [8]: 65.1 mL/min/kg |
| Cc1cc2oc(=O)cc(-c3ccccc3)c2c(C)c1-c1ccncc1 |  |  | MIC90 [5]: 0.24 to 5.6 µM (≈ 0.0786 to 1.83 µg/mL) |
| Cc1cc2nccc(-c3ccccc3Cl)c2c(C)c1-c1ccc(CN2CCOCC2)cc1 | 0.3 µM (≈ 0.133 µg/mL) |  |  |
| Cc1cc2nc(C(=O)NCCF)cc(-c3ccccc3Cl)c2c(C)c1-c1ccncc1 | 1.25 µM (≈ 0.542 µg/mL) | 5 µM (≈ 2.17 µg/mL) |  |
| Cc1cc2nccc(-c3ccccc3C(=O)O)c2c(C)c1-c1ccc(CN2CCOCC2)cc1 | 40 µM (≈ 18.1 µg/mL) | 222 µM (≈ 100 µg/mL) |  |
| CCc1ccccc1CNc1ccnc2cc(C)c(-c3ccc(CN4CCOCC4)cc3)c(C)c12 | 2.5 µM (≈ 1.16 µg/mL) | 59 µM (≈ 27.5 µg/mL) |  |
| CNC(=O)c1cc(-c2ccccc2Cl)c2c(C)c(-c3ccncc3)c(C)cc2n1 | 0.8 µM (≈ 0.322 µg/mL) | 15 µM (≈ 6.03 µg/mL) | remaining at 1 h, 1 µM [3]: 19.1%; remaining at 1 h, 1 µM [4]: 19.4%; IC50 (HepG2): 60 µM; Activity [9]: 4 deltalog10CFU; Activity [10]: Dose-dependent effect; ED99 [11]: 7.8 mg/kg; Activity (Mus musculus): Non-Toxic |
| Cc1cc2nccc(-c3ccccc3C#N)c2c(C)c1-c1ccc(CN2CCOCC2)cc1 | 2.5 µM (≈ 1.08 µg/mL) | 24 µM (≈ 10.4 µg/mL) |  |
| Cc1cc2nc(C(=O)N(C)C)cc(-c3ccccc3Cl)c2c(C)c1-c1ccncc1 | 20 µM (≈ 8.32 µg/mL) | 157 µM (≈ 65.3 µg/mL) |  |
| Cc1cc2nc(C(N)=O)cc(-c3ccccc3Cl)c2c(C)c1-c1ccncc1 | 1.25 µM (≈ 0.485 µg/mL) | 8 µM (≈ 3.1 µg/mL) |  |
| Cc1cc2nccc(-c3cccc(Cl)c3)c2c(C)c1-c1ccc(CN2CCOCC2)cc1 | 1.5 µM (≈ 0.664 µg/mL) | 1 µM (≈ 0.443 µg/mL) |  |
| Cc1cc2[nH]c(=O)cc(-c3ccccc3)c2c(C)c1-c1ccc(CN2CCOCC2)cc1 | > 40 µM |  |  |
| Cc1cccc(C)c1-c1ccnc2cc(C)c(-c3ccc(CN4CCOCC4)cc3)c(C)c12 | 5 µM (≈ 2.18 µg/mL) |  |  |
| Cc1cc2nccc(-c3ccc(Cl)cc3)c2c(C)c1-c1ccc(CN2CCOCC2)cc1 | > 80 µM |  |  |
| Cc1cc2nccc(-c3ccccc3)c2c(C)c1-c1ccc(CN2CCOCC2)cc1 | 0.45 µM (≈ 0.184 µg/mL) |  |  |
| Cc1cc2nc(C(=O)O)cc(-c3ccccc3Cl)c2c(C)c1-c1ccncc1 | 80 µM (≈ 31.1 µg/mL) | 226 µM (≈ 87.9 µg/mL) |  |
| Cc1cc(O)c(/C(=C\C(=O)N2CCOCC2)c2ccc(F)cc2)c(C)c1-c1ccc(CN2CCOCC2)cc1 |  |  | Drug metabolism [12]: Metabolite_Detected |
| Cc1cc2nccc(-c3ccccc3C(N)=O)c2c(C)c1-c1ccc(CN2CCOCC2)cc1 | 20 µM (≈ 9.03 µg/mL) |  |  |

Reference: ChEMBL document CHEMBL4261616, “Discovery of heterocyclic replacements for the coumarin core of anti-tubercular FadD32 inhibitors” (Bioorg Med Chem Lett, 2018)
